From patent US5059624A, “Guanidine derivatives having hypotensive activity, composition containing them and process for obtaining them” (Consiglio Nazionale Delle Ricerche, priority 1988, dated 1991)
Where two headings read alike, the source gives them in different places.

System: male Wistar rats
Conditions: for cardiovascular and respiratory effects (in words): i.v.
[1] = doses higher than 50-800 μg/kg i.v., rat

Protocol: In order to check its activity, diguanido-II was dissolved in a 0.9 % sodium chloride solution and administered through "rapid" i.v. route in male Wistar rats, under general anaesthesia obtained by means of 10% ethyl urethan (i ml/hg).
The active ingredients called guanido-III, -IV, -V, as well as agmatine and galegine, were also tested, after having been administered through "rapid" i.v. route in male Wistar rats (weighing average 280±5 g) under general anaesthesia obtained by means of 10% ethyl uretan (1 ml/hg, i.p.). The general experimental conditions were exactly the same as previously mentioned for guanido-I and diguanido-II, so that the cardiovascular and respiratory effects could be compared.
The parameters measured are as follows: systolic and diastolic systemic arterial pressure (AP), heart rate (HR), maximum rate of increase in the left ventricular isovolumetric pressure (dp/dt), respiratory frequency (RF) and tidal volume (TV). The doses (in μg/kg body weight, referred to the active substance) varied from 50 μg/kg to 6,400 μg/kg (ratio=2.0); in some cases higher does have been employed.

SMILES: NCCCCN=C(N)N [agmatine, 4-(aminobutyl)guanidine, reference compound]
- Δ AP DIAST (200 μg/kg i.v.): -4 ± 1 mmHg
- Δ AP SYST (200 μg/kg i.v.): -5 ± 2 mmHg
- Δ HR (200 μg/kg i.v.): 0 beats/min
- Δ RF (200 μg/kg i.v.): +9 ± 3%
- Δ TV (200 μg/kg i.v.): +3 ± 1%
- Δ dp/dt (200 μg/kg i.v.): +300 ± 89 mmHg/sec
- Δ AP DIAST (400 μg/kg i.v.): -6 ± 2 mmHg
- Δ AP SYST (400 μg/kg i.v.): -6 ± 1 mmHg
- Δ HR (400 μg/kg i.v.): 0 beats/min
- Δ RF (400 μg/kg i.v.): +11 ± 4%
- Δ TV (400 μg/kg i.v.): +12 ± 4%
- Δ dp/dt (400 μg/kg i.v.): +334 ± 54 mmHg/sec
- Δ AP DIAST (800 μg/kg i.v.): -8 ± 2 mmHg
- Δ AP SYST (800 μg/kg i.v.): -8 ± 2 mmHg
- Δ HR (800 μg/kg i.v.): 0 beats/min
- Δ RF (800 μg/kg i.v.): +12 ± 4%
- Δ TV (800 μg/kg i.v.): +14 ± 2%
- Δ dp/dt (800 μg/kg i.v.): +947 ± 131 mmHg/sec
- Δ AP DIAST (1600 μg/kg i.v.): -10 ± 1 mmHg
- Δ AP SYST (1600 μg/kg i.v.): -9 ± 3 mmHg
- Δ HR (1600 μg/kg i.v.): 0 beats/min
- Δ RF (1600 μg/kg i.v.): +11 ± 2%
- Δ TV (1600 μg/kg i.v.): +25 ± 5%
- Δ dp/dt (1600 μg/kg i.v.): +981 ± 94 mmHg/sec
- Δ AP DIAST (3200 μg/kg i.v.): -11 ± 2 mmHg
- Δ AP SYST (3200 μg/kg i.v.): -9 ± 2 mmHg
- Δ HR (3200 μg/kg i.v.): -7 ± 2 beats/min
- Δ RF (3200 μg/kg i.v.): +13 ± 4%
- Δ TV (3200 μg/kg i.v.): +27 ± 4%
- Δ dp/dt (3200 μg/kg i.v.): +1356 ± 164 mmHg/sec
- Δ AP DIAST (6400 μg/kg i.v.): -13 ± 4 mmHg
- Δ AP SYST (6400 μg/kg i.v.): -11 ± 4 mmHg
- Δ HR (6400 μg/kg i.v.): -13 ± 5 beats/min
- Δ RF (6400 μg/kg i.v.): +13 ± 5%
- Δ TV (6400 μg/kg i.v.): +30 ± 7%
- Δ dp/dt (6400 μg/kg i.v.): +3351 ± 417 mmHg/sec
- Δ AP DIAST (12800 μg/kg i.v.): -18 ± 5 mmHg
- Δ AP SYST (12800 μg/kg i.v.): -12 ± 2 mmHg
- Δ HR (12800 μg/kg i.v.): -17 ± 2 beats/min
- Δ RF (12800 μg/kg i.v.): +15 ± 2%
- Δ TV (12800 μg/kg i.v.): +31 ± 7%
- Δ dp/dt (12800 μg/kg i.v.): +2568 ± 432 mmHg/sec
- Δ AP DIAST (25600 μg/kg i.v.): -23 ± 4 mmHg
- Δ AP SYST (25600 μg/kg i.v.): -12 ± 3 mmHg
- Δ HR (25600 μg/kg i.v.): -17 ± 7 beats/min
- Δ RF (25600 μg/kg i.v.): +24 ± 4%
- Δ TV (25600 μg/kg i.v.): +33 ± 9%
- Δ dp/dt (25600 μg/kg i.v.): +3565 ± 813 mmHg/sec
- Δ AP DIAST (51200 μg/kg i.v.): -34 ± 6 mmHg
- Δ AP SYST (51200 μg/kg i.v.): -15 ± 1 mmHg
- Δ HR (51200 μg/kg i.v.): -22 ± 1 beats/min
- Δ RF (51200 μg/kg i.v.): +31 ± 7%
- Δ TV (51200 μg/kg i.v.): +35 ± 6%
- Δ dp/dt (51200 μg/kg i.v.): +5491 ± 869 mmHg/sec
- cardiovascular and respiratory effects (in words) (rat): analogous to those induced by guanido-V., moreover, said active ingredient caused a constant increase in dp/dt, RF and TV

SMILES: CC(C)=CCN=C(N)N [galegine, prenylguanidine, reference compound]
- Δ AP DIAST (50 μg/kg i.v.): -19 ± 3 mmHg
- Δ AP SYST (50 μg/kg i.v.): -18 ± 1 mmHg
- Δ HR (50 μg/kg i.v.): -32 ± 6 beats/min
- Δ RF (50 μg/kg i.v.): +38 ± 4%
- Δ TV (50 μg/kg i.v.): +43 ± 4%
- Δ dp/dt (50 μg/kg i.v.): +1498 ± 131 mmHg/sec
- Δ AP DIAST (100 μg/kg i.v.): -28 ± 6 mmHg
- Δ AP SYST (100 μg/kg i.v.): -22 ± 2 mmHg
- Δ HR (100 μg/kg i.v.): -46 ± 7 beats/min
- Δ RF (100 μg/kg i.v.): +68 ± 4%
- Δ TV (100 μg/kg i.v.): +63 ± 5%
- Δ dp/dt (100 μg/kg i.v.): +1712 ± 90 mmHg/sec
- Δ AP DIAST (200 μg/kg i.v.): -29 ± 5 mmHg
- Δ AP SYST (200 μg/kg i.v.): -23 ± 5 mmHg
- Δ HR (200 μg/kg i.v.): -94 ± 6 beats/min
- Δ RF (200 μg/kg i.v.): +69 ± 7%
- Δ TV (200 μg/kg i.v.): +64 ± 7%
- Δ dp/dt (200 μg/kg i.v.): +1797 ± 178 mmHg/sec
- Δ AP DIAST (400 μg/kg i.v.): -26 ± 4 mmHg
- Δ AP SYST (400 μg/kg i.v.): -25 ± 6 mmHg
- Δ HR (400 μg/kg i.v.): -107 ± 4 beats/min
- Δ RF (400 μg/kg i.v.): +76 ± 9%
- Δ TV (400 μg/kg i.v.): +87 ± 9%
- Δ dp/dt (400 μg/kg i.v.): +2568 ± 314 mmHg/sec
- Δ AP DIAST (800 μg/kg i.v.): -26 ± 4 mmHg
- Δ AP SYST (800 μg/kg i.v.): -27 ± 4 mmHg
- Δ HR (800 μg/kg i.v.): -106 ± 11 beats/min
- Δ RF (800 μg/kg i.v.): +70 ± 8%
- Δ TV (800 μg/kg i.v.): +31 ± 3%
- Δ dp/dt (800 μg/kg i.v.): +1926 ± 223 mmHg/sec
- Δ AP DIAST (1600 μg/kg i.v.): -25 ± 4 mmHg
- Δ AP SYST (1600 μg/kg i.v.): -22 ± 4 mmHg
- Δ HR (1600 μg/kg i.v.): -85 ± 5 beats/min
- Δ RF (1600 μg/kg i.v.): +133 ± 14%
- Δ TV (1600 μg/kg i.v.): +55 ± 6%
- Δ dp/dt (1600 μg/kg i.v.): +1724 ± 104 mmHg/sec
- Δ AP DIAST (3200 μg/kg i.v.): -36 ± 4 mmHg
- Δ AP SYST (3200 μg/kg i.v.): -22 ± 3 mmHg
- Δ HR (3200 μg/kg i.v.): -98 ± 16 beats/min
- Δ RF (3200 μg/kg i.v.): +85 ± 6%
- Δ TV (3200 μg/kg i.v.): +40 ± 7%
- Δ dp/dt (3200 μg/kg i.v.): +2996 ± 202 mmHg/sec
- Δ AP DIAST (6400 μg/kg i.v.): -36 ± 2 mmHg
- Δ AP SYST (6400 μg/kg i.v.): -18 ± 4 mmHg
- Δ HR (6400 μg/kg i.v.): -42 ± 4 beats/min
- Δ RF (6400 μg/kg i.v.): +37 ± 11%
- Δ TV (6400 μg/kg i.v.): +29 ± 8%
- Δ dp/dt (6400 μg/kg i.v.): +4494 ± 371 mmHg/sec
- Δ AP DIAST (12800 μg/kg i.v.): -42 ± 3 mmHg
- Δ AP SYST (12800 μg/kg i.v.): -22 ± 2.5 mmHg
- Δ HR (12800 μg/kg i.v.): -15 ± 7 beats/min
- Δ RF (12800 μg/kg i.v.): +23 ± 7%
- Δ TV (12800 μg/kg i.v.): +25 ± 5%
- Δ dp/dt (12800 μg/kg i.v.): +6420 ± 417 mmHg/sec
- Δ AP DIAST (25600 μg/kg i.v.): -30 ± 9 mmHg
- Δ AP SYST (25600 μg/kg i.v.): -19 ± 3 mmHg
- Δ HR (25600 μg/kg i.v.): -21 ± 6 beats/min
- Δ RF (25600 μg/kg i.v.): -34 ± 12%
- Δ TV (25600 μg/kg i.v.): -57 ± 8%
- Δ dp/dt (25600 μg/kg i.v.): +6471 ± 274 mmHg/sec
- Δ AP DIAST (51200 μg/kg i.v.): -50 ± 7 mmHg
- Δ AP SYST (51200 μg/kg i.v.): -80 ± 8 mmHg
- Δ HR (51200 μg/kg i.v.): -298 ± 19 beats/min
- Δ RF (51200 μg/kg i.v.): -100%
- Δ TV (51200 μg/kg i.v.): -100%
- Δ dp/dt (51200 μg/kg i.v.): -4708 ± 312 mmHg/sec
- death of the tested animals at extremely high doses (25,600 and 51,200 ug/kg i.v., rat): primary respiratory depression (reduction of RF and TV) and a subsequent arterial hypotension. bradycardia and decrease in the cardiac inotropism (dp/dt), with death of the tested animals

SMILES: N=C(N)N [guanidine]
- alterations of RF, TV and HR (in words) (50-800 μg/kg i.v., rat): did not cause in the rats under test significative alterations of RF, TV and HR
- dp/dt (in words) (50-800 μg/kg i.v., rat): a little reduction of dp/dt
- hypotensive responses (in words) (50-800 μg/kg i.v., rat): slight and not significant hypotensive responses
- the other parameters (in words) (6,400-1,2600 μg/kg i.v., rat): slight changes
- RF and TV (in words) [1]: reduction of RF and TV
- cardiac inotropism (dp/dt) (in words) [1]: a little increase in cardiac inotropism (dp/dt)
- systemic arterial pressure (in words) [1]: biphasic responses of a slight entity (hypo-hypertension)

SMILES: CC(C)=CCNC(=N)NCCCCN [guanido-III, prenylagmatine]
- Δ AP DIAST (200 μg/kg i.v.): -2 ± 0.2 mmHg
- Δ AP SYST (200 μg/kg i.v.): -2 ± 0.3 mmHg
- Δ HR (200 μg/kg i.v.): 0 beats/min
- Δ RF (200 μg/kg i.v.): +7 ± 4%
- Δ TV (200 μg/kg i.v.): +9 ± 2%
- Δ dp/dt (200 μg/kg i.v.): +214 ± 20 mmHg/sec
- Δ AP DIAST (400 μg/kg i.v.): -2 ± 0.6 mmHg
- Δ AP SYST (400 μg/kg i.v.): -3.5 ± 1.5 mmHg
- Δ HR (400 μg/kg i.v.): 0 beats/min
- Δ RF (400 μg/kg i.v.): +7 ± 3%
- Δ TV (400 μg/kg i.v.): +17 ± 6%
- Δ dp/dt (400 μg/kg i.v.): +321 ± 17 mmHg/sec
- Δ AP DIAST (800 μg/kg i.v.): -13 ± 4 mmHg
- Δ AP SYST (800 μg/kg i.v.): -11 ± 1 mmHg
- Δ HR (800 μg/kg i.v.): -15 ± 3 beats/min
- Δ RF (800 μg/kg i.v.): +10 ± 4%
- Δ TV (800 μg/kg i.v.): +33 ± 9%
- Δ dp/dt (800 μg/kg i.v.): +1356 ± 428 mmHg/sec
- Δ AP DIAST (1600 μg/kg i.v.): -21 ± 4 mmHg
- Δ AP SYST (1600 μg/kg i.v.): -13 ± 2 mmHg
- Δ HR (1600 μg/kg i.v.): -23 ± 10 beats/min
- Δ RF (1600 μg/kg i.v.): +18 ± 3%
- Δ TV (1600 μg/kg i.v.): +21 ± 7%
- Δ dp/dt (1600 μg/kg i.v.): +2157 ± 655 mmHg/sec
- Δ AP DIAST (3200 μg/kg i.v.): -36 ± 6 mmHg
- Δ AP SYST (3200 μg/kg i.v.): -36 ± 7 mmHg
- Δ HR (3200 μg/kg i.v.): -26 ± 8 beats/min
- Δ RF (3200 μg/kg i.v.): -42 ± 9%
- Δ TV (3200 μg/kg i.v.): -73 ± 18%
- Δ AP DIAST (6400 μg/kg i.v.): -85 ± 3 mmHg
- Δ AP SYST (6400 μg/kg i.v.): -112 ± 3 mmHg
- Δ HR (6400 μg/kg i.v.): -310 ± 25 beats/min
- Δ RF (6400 μg/kg i.v.): -100%
- Δ TV (6400 μg/kg i.v.): -100%
- Δ dp/dt (6400 μg/kg i.v.): -5422 ± 514 mmHg/sec
- cardiovascular and respiratory effects (in words) (rat): systolic and diastolic arterial hypotension (well evident starting from the dose of 800 μg/kg), bradycardia, increase of dp/dt (up to the dose of 3,200 μg/kg). increase of RF and TV (up to the dose of 1,600 μg/kg)
- death of the tested animals (rat, in vivo, iv): caused death of the tested animals
